# Reference: paper PMC9142968, “Nitro-Group-Containing Thiopeptide Derivatives as Promising Agents to Target Clostridioides difficile” (Pharmaceuticals, 2022)
# Where two headings read alike, the source gives them in different places.
# Assays:
# S. aureus = test: MIC against Gram-positive/Gram-negative panel; format: cell-based; settings: Staphylococcus aureus
# E. faecalis = test: MIC against Gram-positive/Gram-negative panel; format: cell-based; settings: Enterococcus faecalis
# E. faecium = test: MIC against Gram-positive/Gram-negative panel; format: cell-based; settings: Enterococcus faecium
# E. coli = test: MIC against Gram-positive/Gram-negative panel; format: cell-based; settings: Escherichia coli, ATCC25922
# K. pneumoniae = test: MIC against Gram-positive/Gram-negative panel; format: cell-based; settings: Klebsiella pneumoniae, ATCC10031
# P. aeruginosa = test: MIC against Gram-positive/Gram-negative panel; format: cell-based; settings: Pseudomonas aeruginosa, ATCC27853
# A. baumannii = test: MIC against Gram-positive/Gram-negative panel; format: cell-based; settings: Acinetobacter baumannii, ATCC17904
# in vitro = settings: human, plasma
# Plasma stability = format: in vitro ADME; settings: human plasma, 30 min; read-out: PS % Remaining (30 min)
# Procedure: No significant metabolic liabilities were noted. Incubation of AJ-024 for 30 min with human liver microsomes and with human plasma proteins returned 63.8% and 95.9% of unchanged compound, respectively.
# CYP2C19 = CYP2C19 (Homo sapiens, UniProt P33261); test: Inhibition of CYP enzyme activity (S-mephenytoin probe); settings: test compound 10 uM; activity expressed as percentage of control
# Chain of CYP2C19 (P33261 whole entry): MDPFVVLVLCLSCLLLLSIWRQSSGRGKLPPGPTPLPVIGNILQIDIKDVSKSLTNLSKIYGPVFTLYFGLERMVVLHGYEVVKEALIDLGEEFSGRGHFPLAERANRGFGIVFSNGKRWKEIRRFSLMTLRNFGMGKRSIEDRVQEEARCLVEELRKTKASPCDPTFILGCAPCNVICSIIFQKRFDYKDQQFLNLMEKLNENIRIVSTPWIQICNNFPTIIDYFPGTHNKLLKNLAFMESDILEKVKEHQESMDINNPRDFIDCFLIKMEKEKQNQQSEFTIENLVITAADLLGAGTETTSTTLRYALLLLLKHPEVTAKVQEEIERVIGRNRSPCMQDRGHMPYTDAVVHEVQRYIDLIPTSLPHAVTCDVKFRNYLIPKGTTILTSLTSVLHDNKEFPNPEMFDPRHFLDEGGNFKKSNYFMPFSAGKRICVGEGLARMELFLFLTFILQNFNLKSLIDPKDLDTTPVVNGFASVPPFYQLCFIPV
# C. difficile [1] = test: MIC by agar dilution, representative C. difficile strains; format: cell-based; settings: Clostridioides difficile
# [2] = tested on: C. difficile clinical isolates; test: MIC by agar dilution, classified C. difficile clinical isolates (South Korea); format: cell-based, Clostridioides difficile
# [3] = tested on: C. difficile ribotype 027; test: Time-kill assay; format: cell-based, Clostridioides difficile; settings: C. difficile ribotype 027, at 1×, 2× and 4× MIC; bactericidal = ≥3 log10 CFU/mL reduction vs starting inoculum
# Procedure: The time-kill studies were performed by the CLSI method. […] Vancomycin was diluted in distilled water and AJ-024 was diluted in 1% (v/v) DMSO. […] Samples were removed at 0, 3, 6, and 24 h post inoculation, and serial 10-fold dilutions were performed. The number of viable cells were determined on BHI agar containing 0.5% yeast extract and 5% defibrinated sheep blood after 24 h of incubation. The plates were incubated at 37 ℃ in an anaerobic chamber. Antimicrobials were considered bactericidal at the lowest concentration that reduced the original inoculum by 3 log 10 CFU/mL at each of the time periods and bacteriostatic if the inoculum was reduced by 0 to 3 log 10 CFU/mL.
# [4] = tested on: C. difficile ribotype 027; test: Mouse IBD-C. difficile comorbidity infection model; format: in vivo; settings: mice, DSS-induced IBD + C. difficile ribotype 027, 30 mg/kg once daily oral gavage, observed period of 15 days
# Procedure: C. difficile ribotype 027 was grown on blood agar plate and incubated for two days at 37 ℃ in an anaerobic chamber and sub-cultured on 70:30 sporulation medium to facilitate the sporulation of C. difficile ribotype 027. Briefly, the sporulation medium consists of 70% SMC (Bacto peptone 90 g, protease peptone 5 g, NH4SO4 1 g, tris base 1.5 g, agar 15 g per liter) and 30% BHIS (BHI agar with 0.5% yeast extract) agar. For inoculation, bacterial colonies were suspended in 0.9% saline solution and further diluted with saline solutions to adjust OD (Optical Density) 1.0 at 1/10 of original saline solutions. Groups of five male C57BL/6J mice were injected orally with a single 0.5 mL dose of the bacterial suspension.
# All animal experiments were conducted in accordance with the ethical guidelines of the Ethics Review Committee for Animal Experimentation at Handong Global University (Republic of Korea, protocol #HGU-20211214-20). C57BL/6J male (4-week-old male weighing 20 to 22 g, Daehan Bio Link Co., Ltd., Eumseong, Korea) 5 mouse per group was used in C. difficile infection model. Mice were maintained in animal chambers kept at 23 ± 2 ℃ with 55% ± 20% relative humidity. An amount of 2% dextran sodium sulfate (DSS, MP biomedical, Irvine, CA, USA) was inoculated by drinking water for 5 days to cause colitis in mice. […]
# C. difficile [5] = settings: treatment of CDI; background statement of the introduction; cited from earlier work
# [6] = ATCC25923, S. aureus ATCC 25923, read-out: MIC
# [7] = ATCC43300, S. aureus ATCC 43300, read-out: MIC
# [8] = S. aureus clinical isolate, read-out: MIC
# [9] = ATCC29212, E. faecalis ATCC 29212, read-out: MIC
# [10] = E. faecalis clinical isolate, read-out: MIC
# [11] = ATCC19434, E. faecium ATCC 19434, read-out: MIC
# [12] = E. faecium clinical isolate, read-out: MIC
# [13] = E. coli ATCC 25922, read-out: MIC
# [14] = K. pneumoniae ATCC 10031, read-out: MIC
# [15] = P. aeruginosa ATCC 27853, read-out: MIC
# [16] = A. baumannii ATCC 17904, read-out: MIC
structure (smiles),measurement,setting,value
CC=C(NC(=O)c1csc(-c2csc(-c3ccc4c(n3)-c3csc(n3)C(C(C)O)NC(=O)c3csc(n3)C(C(C)C)NC(=O)c3csc(n3)C(=CC)NC(=O)C(C(C)O)NC(=O)c3csc-4n3)n2)n1)C(=O)NCCn1c([N+](=O)[O-])cnc1C (centres unmarked) [AJ-024],MIC,S. aureus; [6],0.25 µg/mL
same,MIC,S. aureus; [7],0.25 µg/mL
same,MIC,S. aureus; [8],0.5 µg/mL
same,MIC,E. faecalis; [9],0.25 µg/mL
same,MIC,E. faecalis; [10],0.25 µg/mL
same,MIC,E. faecium; [11],0.25 µg/mL
same,MIC,E. faecium; [12],0.5 µg/mL
same,MIC,E. coli; [13],> 32 µg/mL
same,MIC,K. pneumoniae; [14],> 32 µg/mL
same,MIC,P. aeruginosa; [15],> 32 µg/mL
same,MIC,A. baumannii; [16],> 32 µg/mL
"C[C@@H]1C[C@H]2[C@@H]3CCC4=CC(=O)C=C[C@]4(C)[C@@]3(F)[C@@H](O)C[C@]2(C)[C@@]1(O)C(=O)CO [Dexamethasone, reference compound]","fraction unbound at 4 h, 10 μM",in vitro,0.212
CCOC(=O)[C@H](CCc1ccccc1)N[C@@H](C)C(=O)N1CCC[C@H]1C(=O)O [Enalapril],remaining at 0.5 h,Plasma stability,95.2%
"CC(=O)N1CCN(c2ccc(OCC3COC(Cn4ccnc4)(c4ccc(Cl)cc4Cl)O3)cc2)CC1 (centres unmarked) [Ketoconazole, reference compound]",CYP Inhibition 2C19,CYP2C19,97.6
"CC(=O)NC[C@H]1CN(c2ccc(N3CCOCC3)c(F)c2)C(=O)O1 [LIZ, Linezolid]",MIC,S. aureus; [6],2 µg/mL
same,MIC,S. aureus; [7],2 µg/mL
same,MIC,S. aureus; [8],1 µg/mL
same,MIC,E. faecalis; [9],2 µg/mL
same,MIC,E. faecalis; [10],4 µg/mL
same,MIC,E. faecium; [11],2 µg/mL
same,MIC,E. faecium; [12],2 µg/mL
same,MIC,E. coli; [13],> 32 µg/mL
same,MIC,K. pneumoniae; [14],> 32 µg/mL
same,MIC,P. aeruginosa; [15],> 32 µg/mL
same,MIC,A. baumannii; [16],> 32 µg/mL
CCN(CC)CCOC(=O)c1ccc(N)cc1 [Procaine],remaining at 0.5 h,Plasma stability,1.4%
CN[C@H](CC(C)C)C(=O)N[C@H]1C(=O)N[C@@H](CC(N)=O)C(=O)N[C@H]2C(=O)N[C@H]3C(=O)N[C@H](C(=O)N[C@H](C(=O)O)c4cc(O)cc(O)c4-c4cc3ccc4O)[C@H](O)c3ccc(c(Cl)c3)Oc3cc2cc(c3O[C@@H]2O[C@H](CO)[C@@H](O)[C@H](O)[C@H]2O[C@H]2C[C@](C)(N)[C@H](O)[C@H](C)O2)Oc2ccc(cc2Cl)[C@H]1O [Vancomycin],MIC,C. difficile [1]; ATCC9689,1 µg/mL
same,MIC,C. difficile [1]; ATCC17858,1 µg/mL
same,MIC,C. difficile [1]; ATCC43255,1 µg/mL
same,MIC,C. difficile [1]; ATCC51695,1 µg/mL
same,MIC,C. difficile [1]; ATCCBAA1871,1 µg/mL
same,MIC range,[2],0.5 to 2 µg/mL
same,MIC50,[2]; Clostridioides difficile,1 µg/mL
same,MIC,S. aureus,> 32 µg/mL
same,MIC,S. aureus; ATCC25923,0.5 µg/mL
same,MIC,S. aureus; ATCC43300,0.5 µg/mL
same,MIC,E. faecalis,> 32 µg/mL
same,MIC,E. faecalis; ATCC29212,0.5 µg/mL
same,MIC,E. faecium,> 32 µg/mL
same,MIC,E. faecium; ATCC19434,1 µg/mL
same,MIC,E. coli,> 32 µg/mL
same,MIC,K. pneumoniae,> 32 µg/mL
same,MIC,P. aeruginosa,> 32 µg/mL
same,MIC,A. baumannii,> 32 µg/mL
same,Killing activity (bactericidal / bacteriostatic),[3],bacteriostatic
same,Survival rate,[4],80%
same,Rate of relapse,C. difficile [5],25% to 30%
